Assays:
[1] = Kinetics studies: DFC reaction of FuA with oD1 in PBS; details: pH 7.4 PBS buffer
Method: (§1) DFC reaction in PBS and on proteins. (A) The DFC reaction of oD1 with FuA in pH 7.4 PBS buffer; (B) Time-dependent labelling of 2 mg/mL BSA-FuA with 100 nM oD1-TAMRA for time indicated. Fluorescence signals were acquired using Cy3 channel. Coomassie staining was used to assess BSA loading; (C) Schematic illustration on the single-site modification of the protein oD1 (C156)-SNAP-GFP through the DFC reaction. SNAP-GFP (2 mg/mL) in PBS (pH=7.4) was mixed with 1.5 equivalents of BG-PEG4-oD1 and was incubated at room temperature for 20 min to give oD1 (C156)-SNAP-GFP.
(§2) Measurement of second order rate constants of (A) reactions of o-dione (25 μM) with furan-2(3H)-one (250 μM) in 1×PBS (pH=7.4) and (B) reactions of oD1 (25 μM) with α-AL (250 μM) in different pH buffer. (When pH=5, 6; oD1 is 250 μM and α-AL is 2.5 mM) by plotting ln[1/(1−x)] versus time of o-dione with furan-2(3H)-one reaction (x represents the percent conversion of o-dione).
All kinetics experiments were carried out at room temperature in 1×PBS (pH=7.4). […] Pseudo-first order rate constant kobs was determined by plotting ln[1/(1−x)] versus time and analysis by linear regression. x represents the percent conversion of o-dione. […] The second rate constant k2 was calculated by kobs/[furan-2(3H)-one]. […]

SKOV3 cells = test: MTT assay; format: cell-based; details: 0-200 μM, 24 h
Method: Relative cell viability of SKOV3 cells after incubation with FuA or PDO6. SKOV3 cells were incubated with 0-200 μM FuA or PDO6 for 24 h. MTT was used to assess the cell viability. Data are shown as mean±SEM (n=3).
SKOV3 cells were seeded in 96-well plates with a concentration of 10,000 cells per well. After 12 h, FuA or PDO6 was added with final concentrations of 0, 40, 80, 120, 160, 200 μM. Then, SKOV3 cells were further cultured for 24 h. MTT assay was then carried out. For each well, 20 μL MTT solution (final concentration, 1 mg/mL) was added and 150 μL DMSO was added after 4 h′ incubation. The absorbance at 490 nm was then measured to indicate the cell viability.

BSA-FuA = molecular target: T1, BSA-FuA (Bos taurus, UniProt P02769); test: In-gel fluorescence assay of DFC reaction on BSA-FuA; format: biochemical, bovine; details: incubated in PBS; PDO type cycloadduct confirmed by LC-MS/MS
T1 construct: purchased Sangon Biotech (Shanghai, China)
T1 sequence (P02769 25-607): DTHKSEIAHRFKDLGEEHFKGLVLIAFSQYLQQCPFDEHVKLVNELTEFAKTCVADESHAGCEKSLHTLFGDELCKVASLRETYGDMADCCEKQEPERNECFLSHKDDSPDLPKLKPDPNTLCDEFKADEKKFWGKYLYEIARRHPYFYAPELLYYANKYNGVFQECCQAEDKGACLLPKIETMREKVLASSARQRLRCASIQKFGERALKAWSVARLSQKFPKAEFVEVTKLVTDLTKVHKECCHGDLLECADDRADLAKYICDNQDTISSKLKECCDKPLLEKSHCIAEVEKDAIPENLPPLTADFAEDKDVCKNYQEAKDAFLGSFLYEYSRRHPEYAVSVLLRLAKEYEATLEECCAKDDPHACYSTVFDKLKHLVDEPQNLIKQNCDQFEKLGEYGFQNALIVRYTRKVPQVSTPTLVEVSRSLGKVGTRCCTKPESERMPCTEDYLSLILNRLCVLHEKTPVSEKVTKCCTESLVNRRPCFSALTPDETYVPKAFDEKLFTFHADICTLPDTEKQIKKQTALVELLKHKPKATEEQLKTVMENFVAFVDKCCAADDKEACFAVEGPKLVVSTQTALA
Method: as §1
DFC-based BSA protein labelling and characterization. […]
A solution of BSA (2 mg/mL) in PBS (pH=7.4) was mixed with 200 equivalents of FuA NHS ester and was shaken (900 rpm) at room temperature for 4 h. […] The concentration of BSA-FuA was quantified with BCA protein assay kit (Pierce).
For concentration-dependent reaction, BSA-FuA (2 mg/mL) was incubated with various concentrations of oD1-TAMRA (0-1000 nM) in PBS at room temperature for 30 min. […] Protein samples (20 μg) were further analyzed by gel electrophoresis using 12% polyacrylamide gels and imaged with Bio-Rad Chemdoc imaging system using corresponding filters. Protein loading was assessed by staining with Coomassie Blue according to manufacturer's instructions.

[2] = Kinetics studies: cycloaddition of o-diones with α-AL; details: aqueous solution, pH ranging from 5 to 9
Method: The cycloaddition kinetics of α-AL with different o-diones in pH 7.4 PBS buffer or in aqueous solution with indicated pH.
as §2
All kinetics experiments were carried out at room temperature in 1×PBS (pH=7.4). Second order kinetics were performed by combining o-dione and furan-2(3H)-one in a 1:10 ratio, and the concentration of o-dione is 25/250 μM. Pseudo-first order rate constant kobs was determined by plotting ln[1/(1−x)] versus time and analysis by linear regression. x represents the percent conversion of o-dione. The slope of the linear equation is kobs. The second rate constant k2 was calculated by kobs/[furan-2(3H)-one]. The reported errors for rate constants are based on the standard deviation of the mean for experiments performed in triplicate.

live cells = details: stated as known; cited from earlier work

O=C(O)CCCC1=CCC(=O)O1 [FuA, 4-(5-oxo-4,5-dihydrofuran-2-yl)butanoic acid]
second-order constant of DFC reaction of oD1 with FuA [1]: about 4 M^−1 s^−1 | cytotoxicity / compatibility with live cells (MTT) (SKOV3 cells): good compatibility with live cells

O=C1C(=O)c2ccccc2-c2ccccc21 [PQ, phenanthrene-9,10-dione]
fluorescence of BSA-FuA after incubation (BSA-FuA): fluorescence turn-on

O=C(O)c1ccc2c(c1)-c1ccccc1C(=O)C2=O [oD1]
pH dependence of reaction kinetics with α-AL [2]: increase of pH under which α-AL is stable enough apparently accelerates the cycloaddition reaction | compatibility with live cells (live cells): compatible with live cells

From patent US20260209243A1, “A BIOORTHOGONAL CYCLOADDITION REACTION AND USE THEREOF” (NANJING UNIVERSITY, priority 2022, published 2026)
